Measurements as given in patent publication US20020137929A1, “1 - (3-heterocyclylphenyl) isothiourea, -isourea, -guanidine and -amidine herbicidal agents” (Intellectual Property Department, BASF Aktiengesellschaft, priority 1998, published 2002).

Key:
[1] = tested on: AMBEL (Ragweed, Common); assay: Postemergence herbicidal evaluation; assay type: in vivo, Ambrosia artemisifolia; details: postemergence
Summary of the method: (§1)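 Two-week seedlings sprayed postemergence at 40 psi; formulation: 1:1 acetone/water, 0.5% TWEEN 20; application ≈0.0156–0.500 kg/ha. Greenhouse grow-out, then 0–9 visual scoring at 4–5 weeks.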

[2] = tested on: CASOB (Sicklepod); assay: Postemergence herbicidal evaluation; assay type: in vivo, Cassia obtusifolia; details: postemergence
Summary of the method: as §1

[3] = tested on: CHEAL (Lambsquarters, Common); assay: Postemergence herbicidal evaluation; assay type: in vivo, Chenopodium album; details: postemergence
Summary of the method: as §1

[4] = tested on: IPOHE (Morningglory, Ivyleaf); assay: Postemergence herbicidal evaluation; assay type: in vivo, Ipomoea hederacea; details: postemergence
Summary of the method: as §1

[5] = tested on: ECHCG (Barnyardgrass); assay: Postemergence herbicidal evaluation; assay type: in vivo, Echinochloa crus-galli; details: postemergence
Summary of the method: as §1

[6] = tested on: GLXMAW (Soybean, Williams); assay: Postemergence herbicidal evaluation; assay type: in vivo, Glycine max, (L.) Merr. cv Williams; details: postemergence
Summary of the method: as §1

[7] = tested on: TRZAWR (Wheat, Winter, cv Riband); assay: Postemergence herbicidal evaluation; assay type: in vivo, Triticum aestivum; details: postemergence
Summary of the method: as §1

[8] = tested on: ABUTH (Velvetleaf); assay: Preemergence herbicidal evaluation; assay type: in vivo, Abutilon theophrasti; details: preemergence, rated 4-5 weeks after treatment, 0-9 scale
Summary of the method: (§2)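 Herbicidal effect scored visually, 0-9, at 4 to 5 weeks against a control; compound applied preemergence by aqueous acetone spray to seeded soil at about 0.0156 to 0.500 kg/ha.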

[9] = tested on: AMBEL (Ragweed, Common); assay: Preemergence herbicidal evaluation; assay type: in vivo, Ambrosia artemisifolia; details: preemergence, rated 4-5 weeks after treatment, 0-9 scale
Summary of the method: as §2

[10] = tested on: CASOB (Sicklepod); assay: Preemergence herbicidal evaluation; assay type: in vivo, Cassia obtusifolia; details: preemergence, rated 4-5 weeks after treatment, 0-9 scale
Summary of the method: as §2

[11] = tested on: CHEAL (Lambsquarters, Common); assay: Preemergence herbicidal evaluation; assay type: in vivo, Chenopodium album; details: preemergence, rated 4-5 weeks after treatment, 0-9 scale
Summary of the method: as §2

[12] = tested on: IPOHE (Morningglory, Ivyleaf); assay: Preemergence herbicidal evaluation; assay type: in vivo, Ipomoea hederacea; details: preemergence, rated 4-5 weeks after treatment, 0-9 scale
Summary of the method: as §2

[13] = tested on: GLXMAW (Soybean, Williams); assay: Preemergence herbicidal evaluation; assay type: in vivo, Glycine max, (L.) Merr. cv Williams; details: preemergence, rated 4-5 weeks after treatment, 0-9 scale
Summary of the method: as §2

[14] = tested on: ORYSAT (Rice, Tebonnet); assay: Preemergence herbicidal evaluation; assay type: in vivo, Oryza sativa, (L.) Tebonnet; details: preemergence, rated 4-5 weeks after treatment, 0-9 scale
Summary of the method: as §2

[15] = tested on: MOOVA (Monochoria); assay: Preemergence weed control under flooded paddy conditions; assay type: in vivo, Monochoria vaginalis; details: rated 3-4 weeks after treatment
Summary of the method: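 Herbicidal effect is scored visually on a 0-9 scale against an untreated control, three to four weeks after compounds are pipetted into the flood water (1.5 to 3 cm deep) over seeds planted in silt loam at 0.5 cm depth. Rates: about 0.0313 to 0.500 kg/ha.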

Structure (SMILES): CCOC(=O)CN1C(=O)C(CC(=O)NO)S/C1=N/c1cc(-n2c(=O)cc(C(F)(F)F)n(C)c2=O)c(F)cc1Cl (centres unmarked) [Compound 98, Ethyl 2-{{2-chloro-5-[3,6-dihydro-3-methyl-2,6-dioxo-4-(trifluoromethyl)-1(2H)-pyrimidinyl]-4-fluorophenyl}imino}-5-[(hydroxycarbamoyl)methyl]-4-oxo-3-thiazolidineacetate]
- AMBEL herbicidal rating ([1]; rate 0.0156 kg/ha): 3.0
- AMBEL herbicidal rating ([1]; rate 0.0313 kg/ha): 3.0
- AMBEL herbicidal rating ([1]; rate 0.0625 kg/ha): 4.0
- AMBEL herbicidal rating ([1]; rate 0.1250 kg/ha): 9.0
- CASOB herbicidal rating ([2]; rate 0.0156 kg/ha): 0.0
- CASOB herbicidal rating ([2]; rate 0.0313 kg/ha): 0.0
- CASOB herbicidal rating ([2]; rate 0.0625 kg/ha): 0.0
- CASOB herbicidal rating ([2]; rate 0.1250 kg/ha): 1.0
- CHEAL herbicidal rating ([3]; rate 0.0156 kg/ha): 0.0
- CHEAL herbicidal rating ([3]; rate 0.0313 kg/ha): 1.0
- CHEAL herbicidal rating ([3]; rate 0.0625 kg/ha): 3.0
- CHEAL herbicidal rating ([3]; rate 0.1250 kg/ha): 9.0
- IPOHE herbicidal rating ([4]; rate 0.0156 kg/ha): 3.0
- IPOHE herbicidal rating ([4]; rate 0.0313 kg/ha): 3.0
- IPOHE herbicidal rating ([4]; rate 0.0625 kg/ha): 9.0
- IPOHE herbicidal rating ([4]; rate 0.1250 kg/ha): 9.0
- ECHCG herbicidal rating ([5]; rate 0.0156 kg/ha): 0.0
- ECHCG herbicidal rating ([5]; rate 0.0313 kg/ha): 0.0
- ECHCG herbicidal rating ([5]; rate 0.0625 kg/ha): 1.0
- ECHCG herbicidal rating ([5]; rate 0.1250 kg/ha): 1.0
- GLXMAW herbicidal rating ([6]; rate 0.0156 kg/ha): 4.5
- GLXMAW herbicidal rating ([6]; rate 0.0313 kg/ha): 4.5
- GLXMAW herbicidal rating ([6]; rate 0.0625 kg/ha): 5.5
- GLXMAW herbicidal rating ([6]; rate 0.1250 kg/ha): 5.5
- TRZAWR herbicidal rating ([7]; rate 0.0156 kg/ha): 2.5
- TRZAWR herbicidal rating ([7]; rate 0.0313 kg/ha): 2.5
- TRZAWR herbicidal rating ([7]; rate 0.0625 kg/ha): 3.0
- TRZAWR herbicidal rating ([7]; rate 0.1250 kg/ha): 3.0
- ABUTH rating ([8]; 0.0156 kg/ha): 0.0
- ABUTH rating ([8]; 0.0313 kg/ha): 0.0
- ABUTH rating ([8]; 0.0625 kg/ha): 2.0
- ABUTH rating ([8]; 0.1250 kg/ha): 6.0
- ABUTH rating ([8]; 0.2500 kg/ha): 6.0
- ABUTH rating ([8]; 0.5000 kg/ha): 9.0
- AMBEL rating ([9]; 0.0156 kg/ha): 0.0
- AMBEL rating ([9]; 0.0313 kg/ha): 0.0
- AMBEL rating ([9]; 0.0625 kg/ha): 2.0
- AMBEL rating ([9]; 0.1250 kg/ha): 3.0
- AMBEL rating ([9]; 0.2500 kg/ha): 5.0
- AMBEL rating ([9]; 0.5000 kg/ha): 7.0
- CASOB rating ([10]; 0.0156 kg/ha): 0.0
- CASOB rating ([10]; 0.0313 kg/ha): 0.0
- CASOB rating ([10]; 0.0625 kg/ha): 0.0
- CASOB rating ([10]; 0.1250 kg/ha): 1.0
- CASOB rating ([10]; 0.2500 kg/ha): 2.0
- CASOB rating ([10]; 0.5000 kg/ha): 7.0
- CHEAL rating ([11]; 0.0156 kg/ha): 0.0
- CHEAL rating ([11]; 0.0313 kg/ha): 2.0
- CHEAL rating ([11]; 0.0625 kg/ha): 5.0
- CHEAL rating ([11]; 0.1250 kg/ha): 7.0
- CHEAL rating ([11]; 0.2500 kg/ha): 9.0
- CHEAL rating ([11]; 0.5000 kg/ha): 9.0
- IPOHE rating ([12]; 0.0156 kg/ha): 0.0
- IPOHE rating ([12]; 0.0313 kg/ha): 0.0
- IPOHE rating ([12]; 0.0625 kg/ha): 1.0
- IPOHE rating ([12]; 0.1250 kg/ha): 3.0
- IPOHE rating ([12]; 0.2500 kg/ha): 4.0
- IPOHE rating ([12]; 0.5000 kg/ha): 9.0
- GLXMAW rating ([13]; 0.0156 kg/ha): 0.0
- GLXMAW rating ([13]; 0.0313 kg/ha): 0.0
- GLXMAW rating ([13]; 0.0625 kg/ha): 1.0
- GLXMAW rating ([13]; 0.1250 kg/ha): 1.0
- GLXMAW rating ([13]; 0.2500 kg/ha): 4.0
- GLXMAW rating ([13]; 0.5000 kg/ha): 5.0
- ORYSAT rating ([14]; 0.0156 kg/ha): 0.0
- ORYSAT rating ([14]; 0.0313 kg/ha): 0.0
- ORYSAT rating ([14]; 0.0625 kg/ha): 0.0
- ORYSAT rating ([14]; 0.1250 kg/ha): 0.0
- ORYSAT rating ([14]; 0.2500 kg/ha): 1.0
- ORYSAT rating ([14]; 0.5000 kg/ha): 4.0
- MOOVA herbicidal effect rating ([15]; 0.0313 kg/ha): 9.0
- MOOVA herbicidal effect rating ([15]; 0.0625 kg/ha): 9.0
- MOOVA herbicidal effect rating ([15]; 0.1250 kg/ha): 9.0
- MOOVA herbicidal effect rating ([15]; 0.2500 kg/ha): 9.0
